A word on the solubility: it is how much of the substance goes into solution per volume. For orientation: Solubility means how much of the substance goes into solution per volume.

The text below walks through data of patent US11590137B2, “Ruxolitinib formulation for reduction of itch in atopic dermatitis” (Incyte Corporation, priority 2019, dated 2023).

Where two headings read alike, the source gives them in different places.

A short description of data set [1]: Solubility of ruxolitinib free base or 1:1 phosphate salt in potential solvents (HPLC). Format: physicochemical. The conditions noted are these: for solubility at 24 h: thermodynamic from solid; for Solubility: listed as Free Base. The protocol:
First, in order to determine the solubility of ruxolitinib (free base) or its 1:1 phosphate salt, approximately 5 mL of a potential solvent was added to approximately 50 mg of the API or its salt at room temperature. The mixtures were suspended and rotated on a wheel. If the mixtures became clear solutions, more solid material was added. The suspensions were then suspended over 24 hours. The samples were filtered through 0.2 micron filters. The liquid portions were collected and diluted with 50/50 water methanol/water. The concentrations of the diluted samples were analyzed by HPLC. When the free base or salt was fairly insoluble, the results are approximate only.

The test system of data set [2] is patients with moderate-to-severe AD. To be noted: subcutaneous, At Week 16, Solo1 and Solo2 trials, cited from earlier work; for Proportion of patient achieving a 4-point improvement in itch NRS score: itch NRS score of ≥4 at baseline.
Setting [3] is: 300 mg every other week, first printed value.
The mark [4] stands for this setting: 300 mg every other week, second printed value.
Setting [5] is: 300 mg every week, first printed value.
[6] abbreviates: 300 mg every week, second printed value.

As to `N#CC[C@H](C1CCCC1)n1cc(-c2ncnc3[nH]ccc23)cn1` [ruxolitinib phosphate], the solubility at 24 h was less than 200 µg/mL in data set [1] (C12-15 alcohol benzoate, oil or lipid); less than 200 µg/mL in data set [1] (caprylic triglyceride, oil or lipid); less than 200 µg/mL in data set [1] (dimethicone, oil or lipid); less than 100 µg/mL in data set [1] (isopropyl myristate, oil or lipid); less than 100 µg/mL in data set [1] (mineral oil, oil or lipid); 100 µg/mL in data set [1] (oleyl alcohol, oil or lipid, Olelyl alcohol). Further, the solubility at 24 h is 24000 µg/mL in data set [1] (propylene glycol, organic solvent or mixture); 23000 µg/mL in data set [1] (water/PEG 200 (50/50), aqueous with cosolvent or surfactant or cyclodextrin); 18000 µg/mL in data set [1] (water/glycerin/trolamine (40/40/20), aqueous with cosolvent or surfactant or cyclodextrin).

Take `N#CC[C@H](C1CCCC1)n1cc(-c2ncnc3[nH]ccc23)cn1` [ruxolitinib, (R)-3-(4-(7H-pyrrolo[2,3-d]pyrimidin-4-yl)-1H-pyrazol-1-yl)-3-cyclopentylpropanenitrile]: the solubility at 24 h came to 1100 µg/mL in data set [1] (0.1 M citric buffer, pH 4, aqueous buffer, pH 4, citric buffer, 0.1M); 150 µg/mL in data set [1] (0.1 M citric buffer, pH 6, aqueous buffer, pH 6, citric buffer, 0.1M); 17400 µg/mL in data set [1] (PEG 200, organic solvent or mixture, PEG 200); 10600 µg/mL in data set [1] (PEG 300, organic solvent or mixture, PEG 300); 7600 µg/mL in data set [1] (Transcutol, organic solvent or mixture); 2300 µg/mL in data set [1] (benzyl alcohol, organic solvent or mixture). The solubility at 24 h in data set [1] (ethanol, organic solvent or mixture) is 5500 µg/mL; in data set [1] (glycerin, organic solvent or mixture) it was 8300 µg/mL; in data set [1] (isopropanol, organic solvent or mixture), 450 µg/mL; in data set [1] (isosorbide dimethyl ether, organic solvent or mixture), 300 µg/mL; in data set [1] (trolamine, organic solvent or mixture), 38600 µg/mL; in data set [1] (water, room temperature), 2000 µg/mL. In addition, the solubility at 24 h in data set [1] (water/glycerin (50/50), aqueous with cosolvent or surfactant or cyclodextrin, Water/glyercin (50/50)) was determined as 15900 µg/mL. Also, the Solubility was 150 µg/mL in data set [1] (C12-15 alcohol benzoate); 150 µg/mL in data set [1] (Caprylic triglyceride); 80 µg/mL in data set [1] (Mineral oil); 80 µg/mL in data set [1] (Olelyl alcohol); 17400 µg/mL in data set [1] (Water/PEG 200 (50/50)).

Take “dupilumab: a systemic biologic agent; phase 3 trials in moderate-to-severe AD cited for comparison”: the “Proportion of patients achieving EASI-75” value in data set [2] (setting [3]) was 44%; in data set [2] (setting [4]) it was 51%; in data set [2] (setting [5]) it was 48%; in data set [2] (setting [6]) it was 52%. Further, the “Proportion of patients achieving IGA-TS” value in data set [2] (setting [3]) is 36%; in data set [2] (setting [4]) it was 38%; in data set [2] (setting [5]), 36%; in data set [2] (setting [6]) it was 37%. Moreover, the “Proportion of patient achieving a 4-point improvement in itch NRS score” value is 36% in data set [2] (setting [3]), 41% in data set [2] (setting [4]), 39% in data set [2] (setting [5]) and 40% in data set [2] (setting [6]).
